Data taken from publication PMC11992111 (Nature Communications, 2025).

Tests used:
Type in all cases: binding
AZG2 [1] = biological target: T1, AZG2 (Arabidopsis thaliana, UniProt Q84MA8); test: ITC
T1 sequence (Q84MA8 1-530): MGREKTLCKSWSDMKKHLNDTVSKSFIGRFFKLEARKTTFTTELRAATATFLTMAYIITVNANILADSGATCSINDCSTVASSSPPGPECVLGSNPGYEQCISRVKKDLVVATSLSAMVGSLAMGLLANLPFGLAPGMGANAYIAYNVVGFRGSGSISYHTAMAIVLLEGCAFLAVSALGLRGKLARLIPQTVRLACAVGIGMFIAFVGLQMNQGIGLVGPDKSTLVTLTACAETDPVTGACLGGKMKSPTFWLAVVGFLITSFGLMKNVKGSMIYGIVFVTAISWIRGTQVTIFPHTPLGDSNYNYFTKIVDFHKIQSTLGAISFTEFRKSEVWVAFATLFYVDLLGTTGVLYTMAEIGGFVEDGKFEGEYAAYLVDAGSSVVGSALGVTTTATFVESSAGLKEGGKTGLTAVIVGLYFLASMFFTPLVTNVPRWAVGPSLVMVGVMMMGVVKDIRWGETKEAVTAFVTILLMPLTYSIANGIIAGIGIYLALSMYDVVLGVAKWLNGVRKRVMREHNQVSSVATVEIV

AZG2 [2] = biological target: T1, AZG2; test: ITC at pH […]
AZG1 = AZG1 (Arabidopsis thaliana, UniProt Q9SRK7); test: ITC at pH […]

SMILES	Kd (AZG2 [1]) [µM]	Kd (AZG2 [2]) [µM]	Kd (AZG1) [µM]
c1ccc(CNc2ncnc3nc[nH]c23)cc1 [BA, benzyladenine]	2.09 ± 0.47	–	–
c1coc(CNc2ncnc3[nH]cnc23)c1 [kinetin]	0.71 ± 0.09	–	–
CC(C)=CCNc1ncnc2nc[nH]c12 [iP, N^6-(Δ^2-isopentenyl)adenine]	0.71 ± 0.08	–	–
Nc1ncnc2nc[nH]c12 [adenine]	–	0.77 ± 0.09	0.62 ± 0.11
